Columns and labels:
[1] = system: barnyardgrass; assay: Test A preemergence; format: in vivo, Echinochloa crus-galli; details: for Barnyardgrass plant response rating (0 to 100 scale, 0 is no effect, 100 is complete control): 125 g ai/ha; for Barnyardgrass plant response rating: 500 g ai/ha, 0 to 100 scale where 0 is no effect and 100 is complete control
Method in brief: (§1)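 Scoring: eye-based comparison with untreated controls, 0 for no effect through 100 for complete control, at about day 10. Treatments: directed soil spray preemergence; foliar spray postemergence on 2–10 cm plants at the one- to two-leaf stage. Medium: loam soil with sand.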

[2] = system: large (Lg) crabgrass; assay: Test A preemergence; format: in vivo, Digitaria sanguinalis; details: for Crabgrass, Large plant response rating (0 to 100 scale): 125 g ai/ha; for Crabgrass, Large plant response rating: 500 g ai/ha, 0 to 100 scale where 0 is no effect and 100 is complete control
Method in brief: as §1

[3] = system: giant foxtail; assay: Test A preemergence; format: in vivo, Setaria faberii; details: for Foxtail, Giant plant response rating (0 to 100 scale): 125 g ai/ha; for Foxtail, Giant plant response rating: 500 g ai/ha, 0 to 100 scale where 0 is no effect and 100 is complete control
Method in brief: as §1

[4] = system: morningglory; assay: Test A preemergence; format: in vivo, Ipomoea spp.; details: for Morningglory plant response rating (0 to 100 scale): 125 g ai/ha; for Morningglory plant response rating: 500 g ai/ha, 0 to 100 scale where 0 is no effect and 100 is complete control
Method in brief: as §1

[5] = system: pigweed; assay: Test A preemergence; format: in vivo, Amaranthus retroflexus; details: for Pigweed plant response rating (0 to 100 scale): 125 g ai/ha; for Pigweed plant response rating: 500 g ai/ha, 0 to 100 scale where 0 is no effect and 100 is complete control
Method in brief: as §1

[6] = system: velvetleaf; assay: Test A preemergence; format: in vivo, Abutilon theophrasti; details: for Velvetleaf plant response rating (0 to 100 scale): 125 g ai/ha; for Velvetleaf plant response rating: 500 g ai/ha, 0 to 100 scale where 0 is no effect and 100 is complete control
Method in brief: as §1

[7] = system: wheat; assay: Test A preemergence; format: in vivo, Triticum aestivum; details: for Wheat plant response rating (0 to 100 scale): 125 g ai/ha; for Wheat plant response rating: 500 g ai/ha, 0 to 100 scale where 0 is no effect and 100 is complete control
Method in brief: as §1

[8] = system: corn; assay: Test A preemergence; format: in vivo, Zea mays; details: for Corn plant response rating (0 to 100 scale): 125 g ai/ha; for Corn plant response rating: 500 g ai/ha, 0 to 100 scale where 0 is no effect and 100 is complete control
Method in brief: as §1

[9] = system: barnyardgrass; assay: Test A postemergence; format: in vivo, Echinochloa crus-galli; details: 0 to 100 scale where 0 is no effect and 100 is complete control; for Barnyardgrass plant response rating: 125 g ai/ha; for Plant response rating, Barnyardgrass: 500 g ai/ha
Method in brief: as §1

[10] = system: large (Lg) crabgrass; assay: Test A postemergence; format: in vivo, Digitaria sanguinalis; details: 0 to 100 scale where 0 is no effect and 100 is complete control; for Crabgrass, Large plant response rating: 125 g ai/ha; for Plant response rating, Crabgrass, Large: 500 g ai/ha
Method in brief: as §1

[11] = system: giant foxtail; assay: Test A postemergence; format: in vivo, Setaria faberii; details: 0 to 100 scale where 0 is no effect and 100 is complete control; for Foxtail, Giant plant response rating: 125 g ai/ha; for Plant response rating, Foxtail, Giant: 500 g ai/ha
Method in brief: as §1

[12] = system: morningglory; assay: Test A postemergence; format: in vivo, Ipomoea spp.; details: 0 to 100 scale where 0 is no effect and 100 is complete control; for Morningglory plant response rating: 125 g ai/ha; for Plant response rating, Morningglory: 500 g ai/ha
Method in brief: as §1

[13] = system: pigweed; assay: Test A postemergence; format: in vivo, Amaranthus retroflexus; details: 0 to 100 scale where 0 is no effect and 100 is complete control; for Pigweed plant response rating: 125 g ai/ha; for Plant response rating, Pigweed: 500 g ai/ha
Method in brief: as §1

[14] = system: velvetleaf; assay: Test A postemergence; format: in vivo, Abutilon theophrasti; details: 0 to 100 scale where 0 is no effect and 100 is complete control; for Velvetleaf plant response rating: 125 g ai/ha; for Plant response rating, Velvetleaf: 500 g ai/ha
Method in brief: as §1

[15] = system: wheat; assay: Test A postemergence; format: in vivo, Triticum aestivum; details: 0 to 100 scale where 0 is no effect and 100 is complete control; for Wheat plant response rating: 125 g ai/ha; for Plant response rating, Wheat: 500 g ai/ha
Method in brief: as §1

[16] = system: corn; assay: Test A postemergence; format: in vivo, Zea mays; details: 0 to 100 scale where 0 is no effect and 100 is complete control; for Corn plant response rating: 125 g ai/ha; for Plant response rating, Corn: 500 g ai/ha
Method in brief: as §1

[17] = system: rice; assay: Test B flooded paddy test; format: in vivo, Oryza sativa; details: Flood, 250 g ai/ha; 0 to 100 scale where 0 is no effect and 100 is complete control
Method in brief: (§2)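 Seedlings are raised to two leaves, flooded to a depth of 3 cm and dosed by adding the compound to the floodwater. Water level is kept constant, and plants are scored visually versus controls 13–15 days later (0 = no effect, 100 = complete control).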

[18] = system: sedge, umbrella; assay: Test B flooded paddy test; format: in vivo, Cyperus difformis; details: Flood, 250 g ai/ha; 0 to 100 scale where 0 is no effect and 100 is complete control
Method in brief: as §2

[19] = system: Heteranthera limosa; assay: Test B flooded paddy test; format: in vivo; details: Flood, 250 g ai/ha; 0 to 100 scale where 0 is no effect and 100 is complete control
Method in brief: as §2

[20] = system: barnyardgrass; assay: Test B flooded paddy test; format: in vivo, Echinochloa crus-galli; details: Flood, 250 g ai/ha; 0 to 100 scale where 0 is no effect and 100 is complete control
Method in brief: as §2

Row | SMILES | Barnyardgrass plant response rating (0 to 100 scale, 0 is no effect, 100 is complete control) [1] | Barnyardgrass plant response rating [1] | Crabgrass, Large plant response rating (0 to 100 scale) [2] | Crabgrass, Large plant response rating [2] | Foxtail, Giant plant response rating (0 to 100 scale) [3] | Foxtail, Giant plant response rating [3] | Morningglory plant response rating (0 to 100 scale) [4] | Morningglory plant response rating [4] | Pigweed plant response rating (0 to 100 scale) [5] | Pigweed plant response rating [5] | Velvetleaf plant response rating (0 to 100 scale) [6] | Velvetleaf plant response rating [6] | Wheat plant response rating (0 to 100 scale) [7] | Wheat plant response rating [7] | Corn plant response rating (0 to 100 scale) [8] | Corn plant response rating [8] | Barnyardgrass plant response rating [9] | Plant response rating, Barnyardgrass [9] | Crabgrass, Large plant response rating [10] | Plant response rating, Crabgrass, Large [10] | also measured
1 | FC(F)c1cccc(Oc2ncc(Br)cn2)c1-n1cc(Cl)cn1 [Compound 210] | 10 | 70 | 100 | 100 | 100 | 100 | 0 | 0 | 100 | 100 | 20 | 60 | 0 | 0 | 0 | 0 | 20 | 40 | 40 | 70 | Foxtail, Giant plant response rating [11]: 30; Plant response rating, Foxtail, Giant [11]: 60; Morningglory plant response rating [12]: 20; Plant response rating, Morningglory [12]: 30; Pigweed plant response rating [13]: 100; Plant response rating, Pigweed [13]: 100; Velvetleaf plant response rating [14]: 60; Plant response rating, Velvetleaf [14]: 80; Wheat plant response rating [15]: 0; Plant response rating, Wheat [15]: 0; Corn plant response rating [16]: 10; Plant response rating, Corn [16]: 30; Plant response rating, Rice [17]: 15; Plant response rating, Sedge, Umbrella [18]: 60; Plant response rating, Ducksalad [19]: 75; Plant response rating, Barnyardgrass [20]: 0
2 | N#Cc1cc(F)cc(Oc2ncc(Cl)cn2)c1-n1cc(Br)cn1 [Compound 238] | 70 | 100 | 100 | 100 | 100 | 100 | 10 | 100 | 100 | 100 | 70 | 90 | 0 | 30 | 0 | 90 | 40 | 100 | 60 | 90 | Foxtail, Giant plant response rating [11]: 60; Plant response rating, Foxtail, Giant [11]: 90; Morningglory plant response rating [12]: 40; Plant response rating, Morningglory [12]: 60; Pigweed plant response rating [13]: 100; Plant response rating, Pigweed [13]: 100; Velvetleaf plant response rating [14]: 60; Plant response rating, Velvetleaf [14]: 100; Wheat plant response rating [15]: 0; Plant response rating, Wheat [15]: 60; Corn plant response rating [16]: 0; Plant response rating, Corn [16]: 80; Plant response rating, Rice [17]: 0; Plant response rating, Sedge, Umbrella [18]: 90; Plant response rating, Ducksalad [19]: 70; Plant response rating, Barnyardgrass [20]: 0
